Results published in patent publication US20020026053A1, “Novel 3-(substituted) -2- indolinones compounds and use thereof as inhibitors of protein kinase activity” (priority 1997, published 2002).

Key:
PDGF-R = PDGF-R Assay (cellular ELISA, U1242 cells); format: cell-based; parameters: concentration or dose not given beside the values
In short: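 U1242 cells seeded in 0.5% serum, serum-starved, then exposed to compound for 2 hr at 37°C before 5–10 min ligand stimulation and lysis in HNTG. Lysate captured on receptor-antibody-coated plates; phosphotyrosine detected with polyclonal anti-pTyr, goat anti-rabbit IgG and ABTS/H2O2, A410 (ref 630 nm), versus untreated cells.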

FLK-1 receptor = assay: FLK-1 Assay (cellular/catalytic ELISA, VEGF-stimulated phosphotyrosine); format: cell-based; parameters: concentration or dose not given beside the values
In short: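 NIH3T3 C7#3 cells engineered to express Flk-1 were serum-starved overnight (0.1% FBS), then exposed to compound for 2 h at 37 °C (final dilution 1:200, 0.5% DMSO) before VEGF stimulation. Lysates captured on anti-FLK-1 antiserum plates; phosphotyrosine detected by UB40 antibody/POD-ABTS ELISA versus untreated controls.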

Row | SMILES | PDGF Kinase % Inhibition (P.119) (PDGF-R) [%] | Flk Kinase % Inhibition (P.110) (FLK-1 receptor) [%]
1 | O=C1Nc2ccc(CCCl)cc2C1=Cc1cc(Cl)cc(Cl)c1O [10734/G03] | −3.8 | 18.7
2 | O=C1Nc2ccc(CCCl)cc2C1=Cc1cc(Cl)ccc1O [10734/G04] | 16.1 | −1.1
3 | CCN(CC)c1ccc(C=C2C(=O)Nc3ccc(CCCl)cc32)c(O)c1 [10734/G05] | 2.9 | 7.4
4 | O=C1Nc2ccc(CCCl)cc2C1=Cc1ccc([N+](=O)[O-])cc1 [10734/G06] | −18.8 | 16.5
5 | O=C1Nc2ccc(CCCl)cc2C1=Cc1cc(Br)cc(Br)c1O [10734/G07] | −25.0 | 21.9
6 | O=C1Nc2ccc(CCCl)cc2C1=Cc1cccc(F)c1O [10734/G08] | 0.2 | 11.6
7 | O=C1Nc2ccc(CCCl)cc2C1=Cc1ccc(O)c(Br)c1 [10734/G09] | −7.7 | 8.5
8 | CC(C)(C)c1ccc(C=C2C(=O)Nc3ccc(CCCl)cc32)cc1 [10734/G10] | 9.9 | 10.8
9 | O=C1Nc2ccc(CCCl)cc2C1=Cc1ccc(Br)s1 [10734/G11] | −25.4 | 8.7
10 | CCOc1cccc(C=C2C(=O)Nc3c(Br)cc(Br)c(C)c32)c1O [10734/H02] | −10.8 | 0.5
11 | Cc1c(Br)cc(Br)c2c1C(=Cc1cc(Cl)cc(Cl)c1O)C(=O)N2 [10734/H03] | 8.6 | 4.6
12 | Cc1c(Br)cc(Br)c2c1C(=Cc1cc(Cl)ccc1O)C(=O)N2 [10734/H04] | 6.0 | −1.3
